We go through two compounds from US20110015413A1, “PROCESS FOR PREPARING CRYSTALLINE CALCIUM MUPIROCIN DIHYDRATE” (priority 2008, published 2011).

Data set [1] is described as follows: Morphology and particle size by thermal field scanning electron microscopy (FE SEM). The class given is physicochemical. The following applies: fused primary particles formed during crystallisation, FIG. 2. The text has this:
The morphology of crystalline mupirocin calcium dihydrate produced according to the procedure of Example 2 was examined by thermal field scanning electron microscopy (FE SEM). An FE SEM microscope, model JSM-7000F, manufactured by Jeol Ltd., Japan, was used in the inspection of samples. The FE SEM microscope was coupled with an EDS/INCA 350 (energy dispersive X-ray analyzer) manufactured by Oxford Instruments Ltd. The samples inspected by FE SEM were not coated with a conductive layer. […] Calcium mupirocin dihydrate crystallize in a columnar particle shape having a mean particle size from about 100 to about 700 nm. During the crystallisation process primary particles, i.e., crystals, are fused to form agglomerates (FIG. 2) having a mean particle size of about 10 μm. During the drying process, the agglomerates adhere to each other, forming aggregates having a mean particle size from about 30 μm to about 400 μm.

The conditions of data set [2]: amorphous form, quoted description; cited from earlier work.
The conditions of data set [3]: amorphous form, quoted description; cited from earlier work. The source holds these as a separate data set.

As to `C/C(=C\C(=O)OCCCCCCCCC(=O)O)C[C@@H]1OC[C@H](C[C@@H]2O[C@H]2[C@@H](C)[C@H](C)O)[C@@H](O)[C@H]1O` [Calcium mupirocin dihydrate, mupirocin calcium dihydrate], the “mean particle size of agglomerates” value in data set [1] was “about 10 μm”.

With `C/C(=C\C(=O)OCCCCCCCCC(=O)[O-])C[C@@H]1OC[C@H](C[C@@H]2O[C@H]2[C@@H](C)[C@H](C)O)[C@@H](O)[C@H]1O.C/C(=C\C(=O)OCCCCCCCCC(=O)[O-])C[C@@H]1OC[C@H](C[C@@H]2O[C@H]2[C@@H](C)[C@H](C)O)[C@@H](O)[C@H]1O.O.O.[Ca+2]` [amorphous calcium salt of mupirocin], in data set [2], the thermal stability result is recorded as “poor thermal stability”. For the same compound, the water solubility entry in data set [3] is given as “sparingly water soluble”.
